pIC50: −log10 of the molar value.
Legend:
[1] = tested on: HCT‐116 (human colorectal carcinoma) cell line; assay: MTT cytotoxicity assay, HCT-116; format: cell-based; conditions: for cytotoxic activity HCT‐116: MTT, 0.0032 to 50 µM, 72 h
Method: (§1) ATCC CCL 247), 501Mel (melanoma; RRID: CVCL_4633), and MCF‐7 (breast adenocarcinoma; ATCC HTB 22), along with non‐tumor cells line NIH/3T3 (mouse embryonic fibroblast; ATCC CRL 1658). […] Cells were kept at 37°C in a humidified atmosphere containing 5% CO2. […] At the end of the incubation period, the culture medium was replaced with a fresh medium containing MTT solution (0.5 mg/mL) and further incubated for 3 h. The MTT solution was then removed, and the formazan crystals formed were dissolved in 150 µL of DMSO. Absorbance for each well was measured at 570 nm, and then the values thereof were normalized in the percentage of viable cells based on that of the negative control.

[2] = tested on: 501Mel (melanoma) cell line; assay: MTT cytotoxicity assay, 501Mel; format: cell-based, human; conditions: for cytotoxic activity 501Mel: 0.0032 to 50 µM, 72 h
Method: as §1

[3] = tested on: MCF‐7 (breast adenocarcinoma) cell line; assay: MTT cytotoxicity assay, MCF-7; format: cell-based, human; conditions: for cytotoxic activity MCF‐7: MTT, 0.0032 to 50 µM, 72 h
Method: as §1

[4] = tested on: NIH/3T3 (mouse embryonic fibroblast) cell line; assay: MTT cytotoxicity assay, non-tumor NIH/3T3; format: cell-based; conditions: for cytotoxic activity NIH/3T3: 0.0032 to 50 µM, 72 h
Method: as §1

| Structure (SMILES) | Selectivity Index (SI) HCT‐116 ([1]; HCT-116 versus NIH/3T3) | Selectivity Index (SI) 501Mel ([2]; 501Mel versus NIH/3T3) | pIC50 ([2]; Homo sapiens, MTT, 72 h incubation) | Selectivity Index (SI) MCF‐7 ([3]; MCF-7 versus NIH/3T3) | pIC50 ([4]; Mus musculus, NIH3T3, 72 h incubation, non-tumor cells) | cytotoxic activity HCT‐116 [1] | cytotoxic activity 501Mel ([2]; MTT) | cytotoxic activity MCF‐7 [3] | cytotoxic activity NIH/3T3 [4] |
| --- | --- | --- | --- | --- | --- | --- | --- | --- | --- |
| COc1cccc2c1C(=O)c1c(O)c3c(c(O)c1C2=O)C[C@@](O)(C(=O)CO)C[C@@H]3O[C@H]1C[C@H](N)[C@H](O)[C@H](C)O1 [Doxorubicin, reference compound] | 7.0 | 2.91 | 6.92 | 11.67 | 6.46 |  |  |  |  |
| COc1ccc(-c2coc3c(OC)c(O)ccc3c2=O)cc1 [Compound 3, 8‐O‐methylretusin] |  |  |  |  |  | no cytotoxic activity | no cytotoxic activity | no cytotoxic activity | no cytotoxic activity |
| COc1ccc(-c2coc3cc(OC)c(O)cc3c2=O)cc1 [Compound 2, Alfalone] |  |  |  |  |  | no cytotoxic activity | no cytotoxic activity | no cytotoxic activity | no cytotoxic activity |

Reference: publication PMC12533803, “Rotenoids from the Roots of Vicia faba L. (Fabaceae): Structural Characterization, Cytotoxic Effects, and Molecular Docking” (Chemistry & Biodiversity, 2025)
